These compounds were tested against T1, TNIK (Homo sapiens, UniProt Q9UKE5) (assay: ADP-Glo Kinase Assay, inhibition activity on TNIK). Settings: not given.
T1 construct: purchased Promega V4158
Type: biochemical
Protocol: The inhibition activities on TNIK, IKKε and TBK1 were measured by a luminometer, TNIK/IKKε/TBK1 Kinase Enzyme System (Promega, Ca# V4158; Invitrogen, PR8031B, Promega, Ca# V3991) and ADP-Glo Kinase Assay using ADP-Glo™ Kinase Analysis Kit (Promega, Ca# V9101) and a kinase reaction buffer [40 mM Tris(pH 7.5), 20 mM MgCl2, 0.1 mg/mL BSA] in accordance with the manufacturer's protocol.

T1 sequence (Q9UKE5 1-367 limits assumed): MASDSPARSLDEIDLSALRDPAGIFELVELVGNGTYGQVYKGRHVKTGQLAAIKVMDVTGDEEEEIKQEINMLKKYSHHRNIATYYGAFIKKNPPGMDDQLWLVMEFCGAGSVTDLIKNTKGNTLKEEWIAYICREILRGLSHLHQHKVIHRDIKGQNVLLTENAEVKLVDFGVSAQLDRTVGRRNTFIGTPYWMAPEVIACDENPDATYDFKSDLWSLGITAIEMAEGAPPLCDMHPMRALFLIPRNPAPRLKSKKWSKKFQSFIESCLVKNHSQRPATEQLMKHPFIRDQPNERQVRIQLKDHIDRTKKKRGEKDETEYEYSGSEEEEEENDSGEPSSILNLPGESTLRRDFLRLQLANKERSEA

`Nc1ccc(-c2ccc(F)cc2)c2c1C(=O)NC2` [Example 61, 7-Amino-4-(4-fluorophenyl)isoindolin-1-one] was tested, and the “TNIK (μM)” value was “Insoluble”.

Same assay, conditions: read-out: TNIK

`O=C(Nc1ccc(-c2cccc(Cl)c2F)c2c1C(=O)NC2)c1ccccc1` [Example 50, N-(7-(3-chloro-2-fluorophenyl)-3-oxoisoindolin-4-yl)benzamide] and `O=C(Nc1ccc(-c2ccccc2)c2c1C(=O)NC2)c1cccc(Cl)c1` [Example 90, 3-Chloro-N-(3-oxo-7-phenylisoindolin-4-yl)benzamide] cannot be ordered by IC50: greater than 20 µM for the first, greater than 20 µM for the second.

First: O=C(Nc1ccc(-c2cncs2)c2c1C(=O)NC2)c1ccccc1 [Example 51, N-(3-oxo-7-(thiazol-5-yl)isoindolin-4-yl)benzamide]
Second: O=C(Nc1ccc(-c2cscn2)c2c1C(=O)NC2)c1ccccc1 [Example 52, N-(3-oxo-7-(thiazol-4-yl)isoindolin-4-yl)benzamide]
The IC50 of the first is 6.4-fold lower: 0.44 µM for the first, 2.8 µM for the second. The first is the more potent here.

Going from `O=C(Nc1ccc(-c2nccs2)c2c1C(=O)NC2)c1ccccc1` [Example 53, N-(3-oxo-7-(thiazol-2-yl)isoindolin-4-yl)benzamide] to `O=C(Nc1ccc(-c2c[nH]cn2)c2c1C(=O)NC2)c1ccccc1` [Example 54, N-(7-(1H-imidazol-4-yl)-3-oxoisoindolin-4-yl)benzamide], the IC50 rises from 2.34 µM to 3.82 µM (1.6-fold). The first is the more potent here.

Compared with `O=C(Nc1ccc(-c2cn[nH]c2)c2c1C(=O)NC2)c1ccccc1` [Example 55, N-(3-oxo-7-(1H-pyrazol-4-yl)isoindolin-4-yl)benzamide], `Cn1cc(-c2ccc(NC(=O)c3ccccc3)c3c2CNC3=O)cn1` [Example 57, N-(7-(1-methyl-1H-pyrazol-4-yl)-3-oxoisoindolin-4-yl) benzamide] is 2.1-fold lower in IC50: 4.62 µM for the first, 2.17 µM for the second.

Compared with `Cn1cncc1-c1ccc(NC(=O)c2ccccc2)c2c1CNC2=O` [Example 56, N-(7-(1-methyl-1H-imidazol-5-yl)-3-oxoisoindolin-4-yl) benzamide], `Cn1ncnc1-c1ccc(NC(=O)c2ccccc2)c2c1CNC2=O` [Example 59, N-(7-(1-methyl-1H-1,2,4-triazol-5-yl)-3-oxoisoindolin-4-yl) benzamide] is higher in IC50: 2.21 µM for the first, greater than 20 µM for the second. The first is the more potent here.

`O=C(Nc1ccc(-c2ncn[nH]2)c2c1C(=O)NC2)c1ccccc1` [Example 58, N-(3-oxo-7-(1H-1,2,4-triazol-5-yl)isoindolin-4-yl)benzamide] and `Cc1cccc(C(=O)Nc2ccc(-c3ccccc3)c3c2C(=O)NC3)c1` [Example 88, 3-Methyl-N-(3-oxo-7-phenylisoindolin-4-yl)benzamide] are within 1.5-fold of each other in IC50: 2.67 µM for the first, 2.8 µM for the second.

`COc1ccc(-c2ccc(N)c3c2CNC3=O)cc1` [Example 60, 7-Amino-4-(4-methoxyphenyl)isoindolin-1-one] and `Cc1ccc(-c2ccc(N)c3c2CNC3=O)cc1` [Example 63, 7-Amino-4-(p-tolyl)isoindolin-1-one] cannot be ordered by IC50: greater than 20 µM for the first, greater than 20 µM for the second.

`Nc1ccc(-c2ccc(Cl)cc2)c2c1C(=O)NC2` [Example 62, 7-Amino-4-(4-chlorophenyl)isoindolin-1-one] and `CC(=O)c1ccc(-c2ccc(N)c3c2CNC3=O)cc1` [Example 64, 4-(4-Acetylphenyl)-7-aminoisoindolin-1-one] cannot be ordered by IC50: greater than 20 µM for the first, greater than 20 µM for the second.

First: Nc1ccc(-c2ccncc2)c2c1C(=O)NC2 [Example 65, 7-Amino-4-(pyridin-4-yl)isoindolin-1-one]
Second: Cc1ccccc1C(=O)Nc1ccc(-c2ccccc2)c2c1C(=O)NC2 [Example 87, 2-Methyl-N-(3-oxo-7-phenylisoindolin-4-yl)benzamide]
The IC50 of the first is higher: greater than 20 µM for the first, 14.6 µM for the second.

Going from `Cc1ccc(C(=O)Nc2ccc(-c3ccccc3)c3c2C(=O)NC3)cc1` [Example 89, 4-Methyl-N-(3-oxo-7-phenylisoindolin-4-yl)benzamide] to `O=C(Nc1ccc(-c2ccccc2)c2c1C(=O)NC2)c1ccc(F)c(F)c1` [Example 92, 3,4-Difluoro-N-(3-oxo-7-phenylisoindolin-4-yl)benzamide], the IC50 rises from 0.77 µM to greater than 20 µM. The first is the more potent here.

Work on `O=C(Nc1ccc(-c2ccccc2)c2c1C(=O)NC2)c1ccc(F)cc1F` [Example 91, 2,4-Difluoro-N-(3-oxo-7-phenylisoindolin-4-yl)benzamide] yielded an IC50 greater than 20 µM.

Source: patent US9856216B2, “Compounds as TNIK, IKKε and TBK1 inhibitors and pharmaceutical composition comprising same” (GREEN CROSS CORPORATION, priority 2015, dated 2018)
